Test results published in patent US10111877B2, “Modulators of androgen synthesis” (Tangent Reprofiling Limited, priority 2012, dated 2018).
Like-named read-outs stand apart in the source and are kept apart here.

Columns and labels:
PC3 cells [1] = test: Cell metabolism inhibition assay (Cell titre Blue) with fatty acids; assay type: cell-based; conditions: for Cellular Metabolic Activity: 100% = undrugged media
Protocol: A cell metabolism inhibition assay was performed to determine the effect of different fatty acids on cellular metabolic rate. The fatty acids tested were α-Linolenic acid, omega 3 fatty acid (ALA), Arachidonic acid, omega 6 fatty acid (AA), 9Z, 11E conjugated Linoleic acid, omega 7 fatty acid (CLA), Docosahexaenoic acid, omega 3 fatty acid (DHA), Eicosapentaenoic acid, omega 3 fatty acid (EPA), Oleic acid, omega 9 fatty acid (OA), Ricinoleic acid, omega 9 hydroxylated fatty acid (RA).
PC3 cells are from a cell line derived from a hormone refractory prostate cancer and are known to overexpress HSD10. PC3 cells were seeded at a density of 4,000 cells per well in a 96 well plate, and incubated at 37° C., 5% CO2 for 48 hours in standard growth media (F12K nutrient media, 7% Fetal Calf Serum, 2 mM L-Glutamine, 45 mg/L ascorbic acid). The media was then removed by pipette and replaced with the appropriate drug treatment as follows: 20 μM, or 40 μM, or 60 μM, or 80 μM, or 100 μM ALA in PC3 treatment media (F12K nutrient media, 125 uM fatty acid free BSA, 2 mM L-Glutamine, 45 mg/L ascorbic acid); 20 μM, or 40 μM, or 60 μM, or 80 μM, or 100 μM AA in PC3 treatment media; 20 μM, or 40 μM, or 60 μM, or 80 μM, or 100 μM CLA in PC3 treatment media; 20 μM, or 40 μM, or 60 μM, or 80 μM, or 100 μM DHA in PC3 treatment media; 20 μM, or 40 μM, or 60 μM, or 80 μM, or 100 μM EPA in PC3 treatment media; 20 μM, or 40 μM, or 60 μM, or 80 μM, or 100 μM OA in PC3 treatment media; and 20 μM, or 40 μM, or 60 μM, or 80 μM, or 100 μM RA in PC3 treatment media. After incubation in the drug treatment for 72 hours at 37° C., 5% CO2, 50 μL Cell titre Blue Assay Reagent was added to each well and the plate return to incubation at 37° C., 5% CO2, for a further 24 hours, at which time the absorbance at 620 nm was recorded. The reduction of absorbance at 620 nm represents a higher metabolic rate, and the data below has been normalized such that 100% represents cells that have been grown in the presence of undrugged media, and 0% represents wells containing no cells.

HSD10 = molecular target: T1, HSD10 (Homo sapiens, UniProt Q99714); test: HSD10 Enzyme Inhibition Assay; assay type: biochemical; conditions: 50 μM drug
T1 construct: endogenous in cells; host or cells: PC3 cells
T1 sequence (Q99714 1-261): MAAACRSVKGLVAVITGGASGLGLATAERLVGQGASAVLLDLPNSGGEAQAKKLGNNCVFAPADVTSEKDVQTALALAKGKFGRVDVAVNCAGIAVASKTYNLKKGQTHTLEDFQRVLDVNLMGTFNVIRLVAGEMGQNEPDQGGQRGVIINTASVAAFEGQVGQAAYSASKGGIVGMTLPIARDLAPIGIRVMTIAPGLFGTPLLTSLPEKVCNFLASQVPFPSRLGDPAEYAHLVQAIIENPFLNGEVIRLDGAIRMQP
Protocol: An HSD10 inhibition assay was performed to determine the effect of several anti-psychotics on enzyme activity.
(§1) PC3 cells are from a cell line derived from a hormone refractory prostate cancer and are known to overexpress HSD10. […] Cells line tests were carried out in presence and absence of testosterone for comparison. After incubation in the drug treatment for 96 hours at 37° C., 5% CO2, the supernatant was removed from all wells of cells, and cells washed with 200 μL PBS.
(§2) After removal of the PBS, cell number was determined using a lysed cell LDH assay (CytoTox 96 Non-radioactive cytotoxicity assay (LDH Assay); Promega, Co., Madison Wis.). Cells were lysed with 0.9% Triton-X in PBS for 2 hours at 37° C., 5% CO2 and 50 μL of this cell lysate was transferred to a fresh 96 well plate. About 50 μL of CytoTox 96 assay reagent was added to the transferred cell lysate and this mixture was incubated at room temperature in the dark for 20 minutes. After the addition of 50 μL stop reagent, the optical absorbance was determined for each incubated mixture at 492 nm. […] The mean and standard error was calculated from at least 3 wells.

PC-3M-luc cells = test: Orthotopic prostate tumor mouse xenograft model; conditions: single drug
Protocol: Immunodeficeint male mice (athymic nude mice) were acclimated to the laboratory for at least one week prior to implantation of tumor. PC-3M-luc cells obtained directly from in vitro culture were then injected into the prostate on Day 0. Animals were divided into six groups of 12 mice each. Primary tumor size and metastases were assessed by bioluminescence measurements on day 6, 13, 20, 27, 34, and 40. On day 7 a five week treatment regime was initiated. Both individual drug and high and low dose combination were examined by administering the drugs twice daily on an individual body weight basis using a dose escalation protocol (Table 7). If tumors grew above a pre-determined level, or mice lost more than 10% of bodyweight, they were culled. The primary tumor was excised, weighed and measured. Individual organs were imaged to assess metastatic burden.

PC3 cells [2] = test: Cell growth inhibition, lysed cell LDH assay, prostate cancer cell line; assay type: cell-based; conditions: 96 hours, 100% = no drug treatment (Table 3);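 further: 100% is cells receiving no drug treatment and 0% is wells without cells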
Protocol: To determine whether Risperidone could be effective in inhibiting growth of cancer cells overexpressing HSD10, a lysed cell LDH assay was conducted using cells from a PC3 cell line.
as §1, §2
To determine the optimal concentration of Risperidone and CLA necessary to inhibit cell growth, a lysed cell LDH assay was conducted using various concentration of Risperidone and CLA. PC3 cells were cultured and a lysed cell LDH assay was conducted as described above, except that the various drug treatments evaluated contained either 0 μM, 12.5 μM, 25 μM, or 50 μM Risperidone in combination with 0 μM, 6.25 μM, 12.5 μM, 25 μM, 50 μM, or 100 μM CLA (see Table 3).
as §2, with “PBS from the cell cultures described above,” for “PBS,”, “assay.” for “assay (CytoTox 96 Non-radioactive cytotoxicity assay (LDH Assay); Promega, Co., Madison Wis.).”

BxPC-3 cells = test: Orthotopic pancreatic tumor mouse xenograft model; assay type: in vivo, mice (athymic nude mice); design: key to Pancreatic tumor weight, vs vehicle / Bioluminescence imaging Area, vs vehicle / Bioluminescence imaging Average radiation, vs vehicle / Bioluminescence imaging Total flux, vs vehicle / Bioluminescence imaging Area (day 34), vs vehicle / Bioluminescence imaging Average radiation (day 34), vs vehicle / Bioluminescence imaging Total flux (day 34), vs vehicle / Body weight curves, vs vehicle / Body weight at sacrifice relative to Day −1 body weight, vs vehicle: ***: statistically significant difference with p-value <0.001; **: p-value <0.01; *: p-value <0.05; p-value <0.1; NS: Non-Significant; conditions: 60 mg/kg intraperitoneal every third day
Protocol: Animals were divided into four groups of 10 mice each which underwent the following treatment regime: Group 1, daily oral administration of vehicle comprising 1% (v/v) ethanol, 20% (v/v) PEG 400, 79% (v/v) acid solution and 0.4% (w/v) TWEEN™ 80 at a final pH of 3.1-3.3 (Control); Group 2, intraperitoneal administration of 60 mg/kg of Reference Compound gemcitabine every third day for four rounds followed by one week rest before repeating the dosing; Group 3, daily oral administration of 1 mg/kg of Test Compound VAL401; and Group 4, daily administration of 2 mg/kg Test Compound VAL401. Administration of Test and Reference Compounds began on Day 1 and continued until Day 33. Body weights of the animals were measured two times a week throughout the in-life phase and blood samples for PK analyses were collected from saphenous vein from all animals 2 hours after compound administration at study Day 24. […] The animals were sacrificed at Day 34. At the termination, brain tissues were collected and frozen. Tumors were weighed, measured in three dimensions followed by fixation and embedding in paraffin for possible histopathological assessment. Also spleen, liver and lungs were collected for possible analysis.
Statistical analysis was performed with statistical software R (version 3.1.2). The parameters with multiple measurements in different time points per animal were analyzed using mixed-effects models and model contrasts. […] The obtained p-values values were adjusted for multiple comparisons if necessary. The continuous valued end-point parameters were analyzed using parametric or non-parametric test. If the groups were normally distributed with equal variance, parametric one-way ANOVA followed by Tukey's HSD post hoc test was used. If the assumptions were not fulfilled as such or after data transform (e.g. logarithmic), nonparametric Kruskal-Wallis test followed by Mann-Whitney U test was used.

[3] = read-out: Oxidative Activity Drug Inhibition
[4] = read-out: Reductive Activity Drug Inhibition

SMILES | Cellular Metabolic Activity (PC3 cells [1]; 20 μM fatty acid) | Cellular Metabolic Activity (PC3 cells [1]; 40 μM fatty acid) | Cellular Metabolic Activity (PC3 cells [1]; 60 μM fatty acid) | Cellular Metabolic Activity (PC3 cells [1]; 80 μM fatty acid) | Cellular Metabolic Activity (PC3 cells [1]; 100 μM fatty acid) | inhibition at 50 µM (HSD10; [3]) | inhibition at 50 µM (HSD10; [4]) | also measured
CC/C=C\C/C=C\C/C=C\CCCCCCCC(=O)O [ALA, α-Linolenic acid] | 118 ± 0.5% | 118 ± 0.9% | 118 ± 0.2% | 117 ± 0.9% | 114 ± 1.2% | – | – | –
CCCCCC[C@@H](O)C/C=C\CCCCCCCC(=O)O [RA, Ricinoleic acid] | 91 ± 6.0% | 94 ± 4.7% | 90 ± 6.2% | 90 ± 6.0% | 94 ± 3.1% | – | – | –
CN1CCN(C2=Nc3cc(Cl)ccc3Nc3ccccc32)CC1 [Clozapine] | – | – | – | – | – | 43% | 15% | –
CN(C)CCOC(c1ccccc1)c1ccccc1 [Diphenhydramine] | – | – | – | – | – | 5% | 6% | Oxidative Activity Rate (HSD10): 8.0 µM/min; Reductive Activity Rate (HSD10): 8.3 µM/min
CCCCCCCC/C=C\CCCCCCCC(=O)O [OA, Oleic acid] | 109 ± 2.7% | 108 ± 0.9% | 111 ± 2.2% | 110 ± 2.2% | 111 ± 2.0% | – | – | –
CN(C)CCCN1c2ccccc2CCc2ccc(Cl)cc21 [Clomipramine] | – | – | – | – | – | 73% | 15% | Oxidative Activity Rate (HSD10): 2.3 µM/min; Reductive Activity Rate (HSD10): 7.5 µM/min
CCCCC/C=C\C/C=C\C/C=C\C/C=C\CCCC(=O)O [AA, Arachidonic acid] | 107 ± 3.9% | 90 ± 5.6% | 78 ± 6.4% | 66 ± 7.2% | 60 ± 5.9% | – | – | –
CN(C)CCCN1c2ccccc2Sc2ccc(Cl)cc21 [Chlorpromazine] | – | – | – | – | – | 8% | 18% | Oxidative Activity Rate (HSD10): 7.7 µM/min; Reductive Activity Rate (HSD10): 7.2 µM/min
CC(=O)O[C@@]12CO[C@@H]1C[C@H](O)[C@@]1(C)C(=O)[C@H](O)C3=C(C)[C@@H](OC(=O)[C@H](O)[C@@H](NC(=O)OC(C)(C)C)c4ccccc4)C[C@@](O)([C@@H](OC(=O)c4ccccc4)[C@H]21)C3(C)C [Docetaxel] | – | – | – | – | – | – | – | body weight throughout the study (PC-3M-luc cells; by Day 40): on a trend of losing weight; Tumor Growth Inhibition (PC-3M-luc cells; calculated on Day 34, dosing per Table 7): 94%; Animal Survival (overall survivorship) (PC-3M-luc cells; day 40, dosing per Table 7): 100%
CC/C=C\C/C=C\C/C=C\C/C=C\C/C=C\C/C=C\CCC(=O)O [DHA, Docosahexaenoic acid] | 90 ± 8.2% | 74 ± 7.6% | 58 ± 5.9% | 49 ± 7.7% | 34 ± 7.0% | – | – | metabolic inhibition (PC3 cells [1]; 60-100 μM range): 40-65%; Percentage of Lysed Cells (PC3 cells [2]; 12.5 μM of each drug): 109 ± 1.1%; Percentage of Lysed Cells (PC3 cells [2]; 25 μM of each drug): 102 ± 3.5%; Percentage of Lysed Cells (PC3 cells [2]; 50 μM of each drug): 95 ± 3.8%
CC/C=C\C/C=C\C/C=C\C/C=C\C/C=C\CCCC(=O)O [EPA, Eicosapentaenoic acid] | 94 ± 9.4% | 71 ± 8.2% | 67 ± 7.4% | 49 ± 7.4% | 37 ± 5.9% | – | – | metabolic inhibition (PC3 cells [1]; 80-100 μM range): 50-65%
Nc1ccn([C@@H]2O[C@H](CO)[C@@H](O)C2(F)F)c(=O)n1 [Gemcitabine, gemcitabine] | – | – | – | – | – | – | – | Bioluminescence imaging Area (day 34), vs vehicle (BxPC-3 cells): NS; Bioluminescence imaging Area, vs vehicle (BxPC-3 cells): NS; Bioluminescence imaging Average radiation (day 34), vs vehicle (BxPC-3 cells): NS; Bioluminescence imaging Average radiation, vs vehicle (BxPC-3 cells): NS; Bioluminescence imaging Total flux (day 34), vs vehicle (BxPC-3 cells): NS; Bioluminescence imaging Total flux, vs vehicle (BxPC-3 cells): NS; Body weight at sacrifice relative to Day −1 body weight, vs vehicle (BxPC-3 cells): NS; Body weight curves, vs vehicle (BxPC-3 cells): NS; Pancreatic tumor volume, vs vehicle (BxPC-3 cells): ↓**; Pancreatic tumor weight, vs vehicle (BxPC-3 cells): NS
